Test results from patent EP0497314A1, “Use of azapirones in attention deficit hyperactivity disorder” (Bristol-Myers Squibb Company, priority 1991, dated 1992).
Structures can show the parent of a compound that is named as a salt. Marks after values point to notes of the source that are not given here.

Tests used:
[1] = test system: fronto-occipital cortex of the cat; experiment: Quantitative EEG, fronto-occipital cat cortex, subcutaneous administration; assay type: in vivo, cats; settings: for group percent change in electrical energy from pre-drug control, Δ band / mean change ± S.E. in electrical energy from pre-drug control, Δ band / group percent change in electrical energy from pre-drug control, α band / mean change ± S.E. in electrical energy from pre-drug control, α band / group percent change in electrical energy from pre-drug control, β band / mean change ± S.E. in electrical energy from pre-drug control, β band / group percent change in electrical energy from pre-drug control, γ band / mean change ± S.E. in electrical energy from pre-drug control, γ band / group percent change in electrical energy from pre-drug control, θ band / mean change ± S.E. in electrical energy from pre-drug control, θ band: fronto-occipital cat cortex; for group percent change in electrical energy from pre-drug control, Δ band / mean change ± S.E. in electrical energy from pre-drug control, Δ band: Δ = 0.5-3.5 Hz; for group percent change in electrical energy from pre-drug control, α band / mean change ± S.E. in electrical energy from pre-drug control, α band: α= 7-13 Hz; for group percent change in electrical energy from pre-drug control, β band / mean change ± S.E. in electrical energy from pre-drug control, β band: β= 13-25 Hz; for group percent change in electrical energy from pre-drug control, γ band / mean change ± S.E. in electrical energy from pre-drug control, γ band: γ= 25-40 Hz; for group percent change in electrical energy from pre-drug control, θ band / mean change ± S.E. in electrical energy from pre-drug control, θ band: θ= 3.5-7.0 Hz
From the text: This unique combination of activity may render buspirone useful in the treatment of childhood hyperkinesis which has been reported to respond to both selected phenothiazine and stimulant drugs. • (b) Adult mongrel female cats weighing 2.5-4.0 kg were implanted with EEG recording electrodes. Recording sites were as follows: fronto-occipital cortex, basal amygdala and ventral hippocampus.
Animals were individually held in canvas feline restraining bags for EEG recording. The EEG of each brain area was recorded on a separate channel. The instrumentation filtered each channel of EEG and analog data into five distinct frequency bands: Δ=0.5-3.5 Hz, ϑ=3.5-7.0 Hz, α=7-13 Hz, β=13-25 Hz and γ=25-40 Hz. The EEG analyzer then integrated the filtered waveforms and sent pulses to an associated computer at a rate proportional to the electrical energy of each band. Data collecting procedures were essentially the same as reported in Example 1. However, groups of six animals each were used and all drugs were administered subcutaneously in saline solution as their respective salts, but all dosages were calculated as the free base. Recording was started 30 minutes after injection to insure adequate drug absorption for peak activity.
Drug-induced EEG changes were determined by comparing the post-treatment data to the pre-treatment control in the same animal. Statistical analysis was performed on change from control, in instrument counts, using multiple Student-t-paired-comparison test with P≦0.05 (Table 2). However, for clarity data are also presented as percent change from control (Figures 3, 4 and 5).
The data in Table 2 are drug-induced changes resulting from the minimum and higher doses of each compound required to elicit the EEG profile characteristic of that particular drug.

rabbit cortex = experiment: Quantitative EEG, rabbit cortex, intravenous administration; assay type: in vivo, rabbits; settings: for group percent change in electrical energy from pre-drug control, Δ band / mean change ± S.E. in electrical energy from pre-drug control, Δ band: Δ = 0.5-3.5 Hz; for group percent change in electrical energy from pre-drug control, α band / mean change ± S.E. in electrical energy from pre-drug control, α band: α= 7-13 Hz; for group percent change in electrical energy from pre-drug control, β band / mean change ± S.E. in electrical energy from pre-drug control, β band: β= 13-25 Hz; for group percent change in electrical energy from pre-drug control, γ band / mean change ± S.E. in electrical energy from pre-drug control, γ band: γ= 25-40 Hz; for group percent change in electrical energy from pre-drug control, θ band / mean change ± S.E. in electrical energy from pre-drug control, θ band: θ= 3.5-7.0 Hz
Procedure: At least 2 weeks were allowed for recovery before beginning experimentation.
Groups of four animals each were individually restrained and connected to an EEG amplifier and frequency analyzer. The EEG of each animal was recorded on a separate channel. The instrumentation filtered each channel of EEG analog data into five distinct frequency bands: Δ=0.5-3.5 Hz, ϑ=3.5-7.0 Hz, α=7-13 Hz, β=13-25 Hz and γ=25-40 Hz. The EEG analyzer then integrated the filtered waveforms and sent pulses to an associated computer at a rate proportional to the electrical energy of each band. Thus, one computer print-out provided a cortical EEG profile for the entire group of four rabbits.
Data from a one-hour recording period were collected in four 15-minute periods, which provided additional information concerning both onset and time of peak effect of drug activity. However, in this report only the mean activity of the four data collection periods was considered since onset of drug activity was immediate and duration of action was at least one hour for all drugs studied. Drug-induced EEG changes were determined by comparing the post-treatment print-out to the pretreatment control in the same animal and statistical analysis was performed on change from control, in counts, using multiple Student-t paired-comparison tests with p≦0.05 (Table 1). However, for clarity data are also presented as percent change from control (Figures 1 and 2).
All drugs were administered intravenously in saline solution as their respective salts and all dosage calculations were based on the free base. Recording was started immediately after injection and animals were not used more often than once per week. Initial doses were reduced geometrically until a no-effect dose was determined for each drug. However, only the "no-effect" data and the data generated from the next higher dose are presented in this report since the shape of the EEG profile is not dose-related, as opposed to the magnitude of the response which is dose-related.

[2] = rabbit cortex, 0.125 mg/kg free base i.v.
[3] = rabbit cortex, 0.25 mg/kg free base i.v.

CSc1ccc2c(c1)N(CCC1CCCCN1C)c1ccccc1S2 (centres unmarked) [Thioridazine HCl, thioridazine]
minimal effective dose ([1]; Felis catus, sc, fronto-occipital cat cortex EEG, dose of free base, read-out: the minimum dose required to produce the EEG profile characteristic of that particular drug): 1 mg/kg
the no-effect dose ([1]; fronto-occipital cat cortex EEG, dose of free base): 0.5† mg/kg, s.c.
group percent change in electrical energy from pre-drug control, Δ band ([1]; 0.5 mg/kg free base s.c.): +5%
mean change ± S.E. in electrical energy from pre-drug control, Δ band ([1]; 0.5 mg/kg free base s.c.): +11 ± 21 instrument counts
group percent change in electrical energy from pre-drug control, Δ band ([1]; 1.0 mg/kg free base s.c.): +19%
mean change ± S.E. in electrical energy from pre-drug control, Δ band ([1]; 1.0 mg/kg free base s.c.): +38 ± 11 instrument counts
group percent change in electrical energy from pre-drug control, Δ band ([1]; 8.0 mg/kg free base s.c.): +28%
mean change ± S.E. in electrical energy from pre-drug control, Δ band ([1]; 8.0 mg/kg free base s.c.): +54 ± 8 instrument counts
group percent change in electrical energy from pre-drug control, α band ([1]; 0.5 mg/kg free base s.c.): 0%
mean change ± S.E. in electrical energy from pre-drug control, α band ([1]; 0.5 mg/kg free base s.c.): 0 ± 7 instrument counts
group percent change in electrical energy from pre-drug control, α band ([1]; 1.0 mg/kg free base s.c.): +18%
mean change ± S.E. in electrical energy from pre-drug control, α band ([1]; 1.0 mg/kg free base s.c.): +20 ± 5 instrument counts
group percent change in electrical energy from pre-drug control, α band ([1]; 8.0 mg/kg free base s.c.): +26%
mean change ± S.E. in electrical energy from pre-drug control, α band ([1]; 8.0 mg/kg free base s.c.): +25 ± 6 instrument counts
group percent change in electrical energy from pre-drug control, β band ([1]; 0.5 mg/kg free base s.c.): -3%
mean change ± S.E. in electrical energy from pre-drug control, β band ([1]; 0.5 mg/kg free base s.c.): -3 ± 3 instrument counts
group percent change in electrical energy from pre-drug control, β band ([1]; 1.0 mg/kg free base s.c.): +3%
mean change ± S.E. in electrical energy from pre-drug control, β band ([1]; 1.0 mg/kg free base s.c.): +3 ± 4 instrument counts
group percent change in electrical energy from pre-drug control, β band ([1]; 8.0 mg/kg free base s.c.): -2%
mean change ± S.E. in electrical energy from pre-drug control, β band ([1]; 8.0 mg/kg free base s.c.): -3 ± 4 instrument counts
group percent change in electrical energy from pre-drug control, γ band ([1]; 0.5 mg/kg free base s.c.): -5%
mean change ± S.E. in electrical energy from pre-drug control, γ band ([1]; 0.5 mg/kg free base s.c.): -3 ± 3 instrument counts
group percent change in electrical energy from pre-drug control, γ band ([1]; 1.0 mg/kg free base s.c.): -11%
mean change ± S.E. in electrical energy from pre-drug control, γ band ([1]; 1.0 mg/kg free base s.c.): -9 ± 4 instrument counts
group percent change in electrical energy from pre-drug control, γ band ([1]; 8.0 mg/kg free base s.c.): -15%
mean change ± S.E. in electrical energy from pre-drug control, γ band ([1]; 8.0 mg/kg free base s.c.): -12 ± 3 instrument counts
group percent change in electrical energy from pre-drug control, θ band ([1]; 0.5 mg/kg free base s.c.): -1%
mean change ± S.E. in electrical energy from pre-drug control, θ band ([1]; 0.5 mg/kg free base s.c.): -2 ± 8 instrument counts
group percent change in electrical energy from pre-drug control, θ band ([1]; 1.0 mg/kg free base s.c.): +24%
mean change ± S.E. in electrical energy from pre-drug control, θ band ([1]; 1.0 mg/kg free base s.c.): +29 ± 5 instrument counts
group percent change in electrical energy from pre-drug control, θ band ([1]; 8.0 mg/kg free base s.c.): +30%
mean change ± S.E. in electrical energy from pre-drug control, θ band ([1]; 8.0 mg/kg free base s.c.): +40 ± 6 instrument counts
minimal effective dose (rabbit cortex; Oryctolagus cuniculus, iv, rabbit cortex EEG, dose of free base, read-out: the minimum dose required to produce the EEG profile characteristic of that particular drug): 0.25 mg/kg
relative potency by comparing minimal doses required to elicit EEG profiles (rabbit cortex; rabbit cortex EEG, i.v.): approximately twice as potent as buspirone
the no-effect dose (rabbit cortex; rabbit cortex EEG, dose of free base): 0.125† mg/kg, i.v.
EEG profile (rabbit cortex; rabbit cortex, i.v.): completely different from that produced by stimulant drugs
group percent change in electrical energy from pre-drug control, Δ band (rabbit cortex; [2]): +3%
mean change ± S.E. in electrical energy from pre-drug control, Δ band (rabbit cortex; [2]): +11 ± 23 instrument counts
group percent change in electrical energy from pre-drug control, Δ band (rabbit cortex; [3]): +69%
mean change ± S.E. in electrical energy from pre-drug control, Δ band (rabbit cortex; [3]): +143 ± 11 instrument counts
group percent change in electrical energy from pre-drug control, α band (rabbit cortex; [2]): 0%
mean change ± S.E. in electrical energy from pre-drug control, α band (rabbit cortex; [2]): 0 ± 6 instrument counts
group percent change in electrical energy from pre-drug control, α band (rabbit cortex; [3]): +34%
mean change ± S.E. in electrical energy from pre-drug control, α band (rabbit cortex; [3]): +54 ± 2 instrument counts
group percent change in electrical energy from pre-drug control, β band (rabbit cortex; [2]): +3%
mean change ± S.E. in electrical energy from pre-drug control, β band (rabbit cortex; [2]): +5 ± 4 instrument counts
group percent change in electrical energy from pre-drug control, β band (rabbit cortex; [3]): +35%
mean change ± S.E. in electrical energy from pre-drug control, β band (rabbit cortex; [3]): +39 ± 4 instrument counts
group percent change in electrical energy from pre-drug control, γ band (rabbit cortex; [2]): +1%
mean change ± S.E. in electrical energy from pre-drug control, γ band (rabbit cortex; [2]): +1 ± 1 instrument counts
group percent change in electrical energy from pre-drug control, γ band (rabbit cortex; [3]): +5%
mean change ± S.E. in electrical energy from pre-drug control, γ band (rabbit cortex; [3]): +5 ± 1 instrument counts
group percent change in electrical energy from pre-drug control, θ band (rabbit cortex; [2]): -5%
mean change ± S.E. in electrical energy from pre-drug control, θ band (rabbit cortex; [2]): -13 ± 8 instrument counts
group percent change in electrical energy from pre-drug control, θ band (rabbit cortex; [3]): +21%
mean change ± S.E. in electrical energy from pre-drug control, θ band (rabbit cortex; [3]): +43 ± 4 instrument counts
